Measured values from patent US20100048498A1, “STABLE NON-DIHYDRATE AZITHROMYCIN ORAL SUSPENSIONS” (priority 2004, published 2010).

Tests used:
[1] = Effect of individual flavorings and sucrose on conversion of azithromycin form G to form A in pH 8.16 buffer; format: physicochemical; set-up: key: AC means all converted to form A; conditions: 18 mls pH 8.16 buffer, room temperature
Procedure: To evaluate a proposed excipient, the active dose of the azithromycin was suspended with the desired amount of potential excipient in a 0.1 M phosphate buffer system adjusted to a pH of 8.16. The buffer system was created by dissolving 13.738 g of NaH2PO4.H2O in 900 ml of water, adjusting the pH to 8.16 with sodium hydroxide, and diluting the solution to 1 liter with water. The sample, once constituted with buffer, was then stored at room temperature for the desired constituted product shelf-life. The azithromycin product was then isolated through filtration, and the resulting solid filtrate analyzed by a Solid-State Nuclear Magnetic Resonance method described previously that allows for quantitation of the dihydrate form present.
The effect of various individual flavoring components and of sucrose upon conversion of azithromycin form G to azithromycin dihydrate (form A), in suspensions, were evaluated as follows.
An 820 mg dose of form G azithromycin was weighed and mixed with 200 mg of each flavoring or sucrose. The mass of each flavoring, used in this test, was chosen to match that of the anticipated required amount for effective flavoring in the constituted POS. In this example, five flavorings, specifically artificial crème de vanilla, B&C banana, Trusil banana, Trusil cherry and artificial grape were investigated in addition to sucrose. Each of the binary samples were then constituted with 18 mls of pH=8.16 buffer and stored for 1, 5 and 10-days at room temperature.
A control suspension of azithromycin form G constituted with 18 mls of pH=8.16 buffer was run with each series of experiments using the same storage conditions. Upon completion of the constituted storage time period these samples were filtered to isolate drug product and analyzed using the SS-NMR method to quantify the amount of azithromycin dihydrate present.

[2] = Effect of cyclodextrins on non-dihydrate azithromycin form conversion in constituted POS formulation II; format: physicochemical; conditions: 24 hours room temperature
Procedure: The effect of adding a complexing agent such as cyclodextrin on the stability of non-dihydrate azithromycin forms G, M and F against conversion in a constituted POS formulation were evaluated.
Forms G, M and F of azithromycin were formulated into POS formulation II. Various cyclodextrins were added to the POS formulation II and the resulting samples were constituted with 18 mls of water. The suspensions were then stored for 24 hours at room temperature. At the end of the storage time, the suspensions were filtered and the recovered solids were weighed and analyzed by SS-NMR to quantify the presence of azithromycin dihydrate (form A). The control samples were formulated into formulation II with non-dihydrate azithromycin form G, M and F without cyclodextrins and were constituted with water, stored, filtered and analyzed identically to the cyclodextrin samples described above. A control, which had no cyclodextrin was run with each series of experiments. The SS-NMR data are presented in Tables 10, 11, 12 and the results are given as weight percent (% wt), of the recovered azithromycin sample.

Δ % Form A ([1]; 820 mg form G + 200 mg Artificial Crème de Vanilla Flavor, constituted 1 day, listed as form G, sesquihydrate): did not exhibit conversion
Δ % Form A ([1]; 820 mg form G + 200 mg Artificial Crème de Vanilla Flavor, constituted 1 day, sesquihydrate): 0%
Δ % Form A ([1]; 820 mg form G + 200 mg Artificial Crème de Vanilla Flavor, constituted 5 days): 4%
Δ % Form A ([1]; 820 mg form G + 200 mg Artificial Crème de Vanilla Flavor, constituted 10 days): 30%
Δ % Form A ([1]; 820 mg form G + 200 mg Artificial Grape Flavor, constituted 1 day): 57%
Δ % Form A ([1]; 820 mg form G + 200 mg Artificial Grape Flavor, constituted 5 days): 75%
Δ % Form A ([1]; 820 mg form G + 200 mg Artificial Grape Flavor, constituted 10 days): AC
Δ % Form A ([1]; 820 mg form G + 200 mg B&C Banana Flavor, constituted 1 day, listed as form G, sesquihydrate): did not exhibit conversion
Δ % Form A ([1]; 820 mg form G + 200 mg B&C Banana Flavor, constituted 1 day, sesquihydrate): 0%
Δ % Form A ([1]; 820 mg form G + 200 mg B&C Banana Flavor, constituted 5 days): 27%
Δ % Form A ([1]; 820 mg form G + 200 mg B&C Banana Flavor, constituted 10 days): AC
Δ % Form A ([1]; 820 mg form G + 200 mg Sucrose, constituted 1 day): 2%
Δ % Form A ([1]; 820 mg form G + 200 mg Sucrose, constituted 5 days): 1%
Δ % Form A ([1]; 820 mg form G + 200 mg Sucrose, constituted 10 days, listed as form G, sesquihydrate): only minimal conversion
Δ % Form A ([1]; 820 mg form G + 200 mg Sucrose, constituted 10 days, sesquihydrate): 6%
Δ % Form A ([1]; 820 mg form G + 200 mg Trusil Banana Flavor, constituted 1 day): 32%
Δ % Form A ([1]; 820 mg form G + 200 mg Trusil Banana Flavor, constituted 5 days): 57%
Δ % Form A ([1]; 820 mg form G + 200 mg Trusil Banana Flavor, constituted 10 days): AC
Δ % Form A ([1]; 820 mg form G + 200 mg Trusil Cherry Flavor, constituted 1 day): 32%
Δ % Form A ([1]; 820 mg form G + 200 mg Trusil Cherry Flavor, constituted 5 days): 75%
Δ % Form A ([1]; 820 mg form G + 200 mg Trusil Cherry Flavor, constituted 10 days): AC
% Form A ([2]; POS Formulation II + Hydroxypropyl β-cyclodextrin 1.2 % w/w, Series 2, 18 mls water): 4.0%
% Form A ([2]; POS Formulation II + Hydroxypropyl β-cyclodextrin 11.1 % w/w, Series 3, 18 mls water): 4.9%
% Form A ([2]; POS Formulation II + Sulfobutylether β-cyclodextrin 1.2 % w/w, Series 2, 18 mls water): 14.4%
% Form A ([2]; POS Formulation II + Sulfobutylether β-cyclodextrin 11.1 % w/w, Series 3, 18 mls water): 7.0%
% Form A ([2]; POS Formulation II + α-cyclodextrin 1.2 % w/w, Series 1, 18 mls water): 4.8%
% Form A ([2]; POS Formulation II + β-cyclodextrin 1.2 % w/w, Series 2, 18 mls water): 8.3%
% Form A ([2]; POS Formulation II + γ-cyclodextrin 1.2 % w/w, Series 1, 18 mls water): 13.4%
% Form A ([2]; POS Formulation II, no cyclodextrin (Control), Series 1, 18 mls water): 68.3%
% Form A ([2]; POS Formulation II, no cyclodextrin (Control), Series 2, 18 mls water): 46.5%
% Form A ([2]; POS Formulation II, no cyclodextrin (Control), Series 3, 18 mls water): 67.9%
Structure (SMILES): CC[C@H]1OC(=O)[C@H](C)[C@@H](O[C@H]2C[C@@](C)(OC)[C@@H](O)[C@H](C)O2)[C@H](C)[C@@H](O[C@@H]2O[C@H](C)C[C@H](N(C)C)[C@H]2O)[C@](C)(O)C[C@@H](C)CN(C)[C@H](C)[C@@H](O)[C@]1(C)O [Form G, azithromycin sesquihydrate]
